Read-outs that look alike come from different tables or passages of the source.
Legend:
M1 muscarinic receptor = target: T1, M1 muscarinic receptor (Homo sapiens, UniProt P11229); assay: Functional mobilization of intracellular calcium (FLIPR) in M1-CHO cells; type: cell-based
T1 construct: expressed in transfected cells; host or cells: CHO (M1-CHO)
T1 sequence (P11229 1-460): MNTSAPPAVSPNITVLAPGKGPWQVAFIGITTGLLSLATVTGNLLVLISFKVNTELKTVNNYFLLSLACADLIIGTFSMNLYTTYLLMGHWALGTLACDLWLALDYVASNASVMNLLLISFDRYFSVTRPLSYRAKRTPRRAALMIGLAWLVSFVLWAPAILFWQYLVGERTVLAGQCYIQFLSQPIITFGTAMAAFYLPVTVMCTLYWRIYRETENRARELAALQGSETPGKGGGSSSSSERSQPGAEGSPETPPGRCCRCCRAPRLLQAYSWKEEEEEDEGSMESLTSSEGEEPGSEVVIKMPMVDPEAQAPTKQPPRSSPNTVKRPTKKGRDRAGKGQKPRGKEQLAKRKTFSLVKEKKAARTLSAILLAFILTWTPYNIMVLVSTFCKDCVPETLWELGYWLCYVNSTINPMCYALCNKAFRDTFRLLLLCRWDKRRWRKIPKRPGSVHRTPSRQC
In short: (§1)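 Two modes: direct compound addition for agonism, or 15 min compound pre-incubation (or co-application) before carbachol at EC80 for inhibition. Calcium signal from Fluo-3 AM or Calcium 3 dye in CHO cells, 1 mM probenecid, pH 7.4, read 60 sec at 488/540 nm; DMSO 0.5% final.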

M4 muscarinic receptor = target: T2, M4 muscarinic receptor (Homo sapiens, UniProt P08173); assay: Functional mobilization of intracellular calcium (FLIPR) in M4-CHO cells; type: cell-based
T2 construct: expressed in transfected cells; host or cells: CHO (M4-CHO)
T2 sequence (P08173 1-479): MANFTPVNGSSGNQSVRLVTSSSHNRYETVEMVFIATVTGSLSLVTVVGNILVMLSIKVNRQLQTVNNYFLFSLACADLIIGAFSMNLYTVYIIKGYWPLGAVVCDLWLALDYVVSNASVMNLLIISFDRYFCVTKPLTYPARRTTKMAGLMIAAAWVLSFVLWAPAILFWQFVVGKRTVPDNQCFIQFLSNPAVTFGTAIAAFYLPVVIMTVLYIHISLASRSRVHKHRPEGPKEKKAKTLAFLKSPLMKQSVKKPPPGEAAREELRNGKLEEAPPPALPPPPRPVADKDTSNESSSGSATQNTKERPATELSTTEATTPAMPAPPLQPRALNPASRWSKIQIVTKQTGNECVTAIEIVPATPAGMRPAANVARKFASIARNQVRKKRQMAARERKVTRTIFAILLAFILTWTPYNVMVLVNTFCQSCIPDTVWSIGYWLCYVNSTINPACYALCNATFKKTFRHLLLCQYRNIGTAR
In short: as §1

[1] = Table 4, 100% efficacy is the maximum response obtained with the Carbachol control
[2] = Table 4, modulating M1 receptor
[3] = Table 4, modulating M4 receptor
[4] = M1 receptor, calcium mobilization
[5] = M4 receptor, calcium mobilization
[6] = M1 receptor, calcium mobilization, read-out: M1 Efficacy
[7] = M4 receptor, calcium mobilization, read-out: M4 Efficacy
[8] = 100% efficacy is the maximum response obtained with the Carbachol control, Table 5

SMILES: CC(=O)N1CC2(CCN(C3CCN(c4cncc(C5CC5)n4)CC3)CC2)c2ccccc21 [compound 611]
- Emax (M1 muscarinic receptor; [1]): 25 to 100%
- M1 Activity (M1 muscarinic receptor; [2]): xxx (activity was measured to be less than 2.0 μM)
- Emax (M4 muscarinic receptor; [1]): < 25%
- M4 Activity (M4 muscarinic receptor; [3]): x (activity was measured to be greater than 5.0 μM)

SMILES: CC#CCOC(=O)N1C2CCC1CC(N1CCC3(CC1)CN(C(C)=O)c1ccccc13)C2 (stereo not shown) [compound 777]
- Emax (M1 muscarinic receptor; [1]): 25 to 100%
- M1 Activity (M1 muscarinic receptor; [2]): xxx (activity was measured to be less than 2.0 μM)
- Emax (M4 muscarinic receptor; [1]): 25 to 100%
- M4 Activity (M4 muscarinic receptor; [3]): xxx (activity was measured to be less than 2.0 μM)

SMILES: CCC=CCOC(=O)N1C2CCC1CC(N1CCC3(CC1)CN(C(C)=O)c1ccccc13)C2 (stereo not shown) [compound 618]
- Emax (M1 muscarinic receptor; [1]): 25 to 100%
- M1 Activity (M1 muscarinic receptor; [2]): xxx (activity was measured to be less than 2.0 μM)
- Emax (M4 muscarinic receptor; [1]): 25 to 100%
- M4 Activity (M4 muscarinic receptor; [3]): xxx (activity was measured to be less than 2.0 μM)

SMILES: COCCOC(=O)N1C2CCC1CC(N1CCC3(CC1)CN(C(=O)O[C@@H]1CCOC1)c1ccc(F)cc13)C2 (stereo partly shown) [compound 216]
- M1 Activity (M1 muscarinic receptor; [4]): xxx (activity was measured to be less than 0.1 μM)
- M1 Efficacy (M1 muscarinic receptor; [4]): xxx (efficacy was calculated to be greater than 85%)
- M4 Activity (M4 muscarinic receptor; [5]): x (activity was measured to be greater than 1.0 μM)
- M4 Efficacy (M4 muscarinic receptor; [5]): x (efficacy was calculated to be less than 65%)

SMILES: CC(=O)N1CC2(CCN(CC3CCCOC3)CC2)c2cc(F)ccc21 (stereo not shown) [compound 75]
- M1 Activity (M1 muscarinic receptor; [4]): xxx (activity was measured to be less than 0.1 μM)
- Emax (M1 muscarinic receptor; [6]): < 65%
- M4 Activity (M4 muscarinic receptor; [5]): xx (activity was measured to be between 0.1 μM and 1.0 μM)
- Emax (M4 muscarinic receptor; [7]): 65 to 85%

SMILES: O=C(C1CC1)N1CC2(CCN(C3CC4CCC(C3)N4C(=O)O[C@@H]3CCOC3)CC2)c2cc(F)ccc21 (stereo partly shown) [compound 87]
- M1 Activity (M1 muscarinic receptor; [4]): xxx (activity was measured to be less than 0.1 μM)
- Emax (M1 muscarinic receptor; [6]): 65 to 85%
- M4 Activity (M4 muscarinic receptor; [5]): x (activity was measured to be greater than 1.0 μM)
- Emax (M4 muscarinic receptor; [7]): < 65%

SMILES: Cc1cc(C(=O)N2CC3(CCN(C4CC5CCC(C4)N5C(=O)OC(C)C)CC3)c3cc(F)ccc32)nn1C (stereo not shown) [compound 24]
- M1 Activity (M1 muscarinic receptor; [4]): xx (activity was measured to be between 0.1 μM and 1.0 μM)
- Emax (M1 muscarinic receptor; [6]): < 65%
- M4 Activity (M4 muscarinic receptor; [5]): x (activity was measured to be greater than 1.0 μM)
- Emax (M4 muscarinic receptor; [7]): < 65%

SMILES: COc1ccc(N2CCC(N3CCC4(CC3)CN(C(=O)N(C)C)c3ccc(F)cc34)CC2)cc1 [compound 1029]
- Emax (M1 muscarinic receptor; [8]): 25 to 100%
- EC50 (M1 muscarinic receptor; CHO cells expressing M1, calcium mobilization, Table 5): 2 to 10 µM
- Emax (M4 muscarinic receptor; [8]): 25 to 100%
- EC50 (M4 muscarinic receptor; CHO cells expressing M4, calcium mobilization, Table 5): 2 to 10 µM

SMILES: CC(=O)N1CC2(CCN(C3CCC[C@@H](C)C3)CC2)c2cc(F)ccc21 (stereo partly shown) [compound 240]
- M1 Activity (M1 muscarinic receptor; [4]): xx (activity was measured to be between 0.1 μM and 1.0 μM)
- Emax (M1 muscarinic receptor; [6]): 65 to 85%
- M4 Activity (M4 muscarinic receptor; [5]): x (activity was measured to be greater than 1.0 μM)
- Emax (M4 muscarinic receptor; [7]): > 85%

SMILES: Fc1ccc2c(c1)C1(CCN([C@H]3C[C@@H]4CC[C@@H]3C4)CC1)CO2 [compound 204]
- M1 Activity (M1 muscarinic receptor; [4]): xxx (activity was measured to be less than 0.1 μM)
- Emax (M1 muscarinic receptor; [6]): 65 to 85%
- M4 Activity (M4 muscarinic receptor; [5]): x (activity was measured to be greater than 1.0 μM)
- Emax (M4 muscarinic receptor; [7]): < 65%

SMILES: O=C(N[C@H]1CC2(CCN([C@@H]3C[C@H]4CC[C@@H]3C4)CC2)c2ccccc21)N1CCCC1 [compound 487]
- Emax (M1 muscarinic receptor; [1]): < 25%
- M1 Activity (M1 muscarinic receptor; [2]): x (activity was measured to be greater than 5.0 μM)
- Emax (M4 muscarinic receptor; [1]): 25 to 100%
- M4 Activity (M4 muscarinic receptor; [3]): xxx (activity was measured to be less than 2.0 μM)

SMILES: Cc1nsc(N2CC3(CCN(C4CC5CCC(C4)N5c4nc(C)ns4)CC3)c3ccccc32)n1 (stereo not shown) [compound 451]
- Emax (M1 muscarinic receptor; [1]): 25 to 100%
- M1 Activity (M1 muscarinic receptor; [2]): xxx (activity was measured to be less than 2.0 μM)
- Emax (M4 muscarinic receptor; [1]): 25 to 100%
- M4 Activity (M4 muscarinic receptor; [3]): xxx (activity was measured to be less than 2.0 μM)

SMILES: CCCNC(=O)N1C2CCC1CC(N1CCC3(CC1)COc1ccc(F)cc13)C2 (stereo not shown) [compound 231]
- M1 Activity (M1 muscarinic receptor; [4]): x (activity was measured to be greater than 1.0 μM)
- Emax (M1 muscarinic receptor; [6]): 65 to 85%
- M4 Activity (M4 muscarinic receptor; [5]): x (activity was measured to be greater than 1.0 μM)
- Emax (M4 muscarinic receptor; [7]): > 85%
